Measurements published in patent US9320809B2, “Nanoparticle comprising hydrophobic drug conjugated to cationic polymer and hydrophilic drug conjugated to anionic polymer” (University-Industry Foundation, Yonsei University, priority 2014, dated 2016).

Test system: Bax, Bcl-2, Bcl-xL mRNA in HuCCT1 and SCK cells
Experiment: Expression level of apoptosis-related genes (real-time PCR)
Assay type: cell-based
Conditions: same amount of drugs; for change of apoptosis gene expression according to the level of expression of CD44: HuCCT1 versus SCK
Experimental: The level of expression of an apoptosis gene of each material was compared and analyzed under the same condition as Experimental Example 4.
Specifically, 1×10^6 HuCCT1 and SCK cells were treated with GEM, PTX, GEM+PTX, HA-GEM, PLL-PTX, HA-GEM, and MDNCs for 4 hours based on the same amount of GEM and PTX. Then, the cells were incubated in a new medium for 24 hours, and thereby the cells were obtained. Total amount of RNA with respect to all the obtained cells was obtained with an RNeasy plus mini kit (QIAGEN Gmbh), and then a concentration of total RNA was obtained using a biophotometer. Thereafter, 2 μg of complementary DNA (cDNA) with respect to the total RNA was synthesized through a high capacity RNA-to-cDNA kit (Applied Biosystems; Thermo Fisher Scientific Inc.). Quantitative analysis of the synthesized cDNA was performed using a QuantiMix SYBR Kit (PKT, Korea) in a real-time PCR system (LightCycler 480 System, HNS Bio). The quantitative analysis was performed through a reacting solution (20 μl) including cDNA (1 μl), SYBR Green mixture (10 μl), each of forward primer (1 μl) and reverse primer (1 μl), and DEPC water (7 μl). The used primers were as follows: […]
PCR was performed at 95° C. for 5 minutes, and then genes were amplified for 45 cycles (10 seconds at 95° C., 10 seconds at 60° C., and 10 seconds at 72° C.). A relative amount of each mRNA was analyzed using a Ct method (2-ΔΔCt) based on GAPDH of each cell, from data obtained as described above.

Row | SMILES | change of apoptosis gene expression according to the level of expression of CD44 | effects on apoptosis gene expression compared with MDNCs
1 | Nc1ccn([C@@H]2O[C@H](CO)[C@@H](O)C2(F)F)c(=O)n1 [GEM, gemcitabine] | few changes | lower than those of the MDNCs
2 | CC(=O)O[C@H]1C(=O)[C@@]2(C)[C@H]([C@H](OC(=O)c3ccccc3)[C@]3(O)C[C@H](OC(=O)[C@H](O)[C@@H](NC(=O)c4ccccc4)c4ccccc4)C(C)=C1C3(C)C)[C@]1(OC(C)=O)CO[C@@H]1C[C@@H]2O [PTX, paclitaxel] | few changes | lower than those of the MDNCs
